# Species: Rattus norvegicus
# Assay: Open TG-GATES - Regimen: Daily Repeat
# Assay type: toxicity, organism-based, Sprague-Dawley
# Set-up: regimen Daily Repeat, gender Male, age 6 weeks
# Conditions: in vivo, po, route gavage; for ALP / ALT / AST / BUN / CRE / Ca / Cl / DBIL / GLC / IP / K / LDH / Na / PL / RALB / TBIL / TC / TG / TP / gamma-GTP / A/G: tissue Plasma; for APTT / Bas / Eos / Fbg / Hb / Ht / Lym / MCH / MCHC / MCV / Mono / Neu / PT / Plat / RBC / Ret / WBC: tissue Blood; for KIDNEY_L / KIDNEY_R / KIDNEY_TOTAL: tissue Kidney; for LIVER: tissue Liver
# [1] = 3 mg/kg, […], dose level Low, time 14 day
# [2] = 3 mg/kg, […], dose level Low, time 28 day
# [3] = 10 mg/kg, 72 h, dose level Middle, time 3 day
# [4] = 10 mg/kg, […], dose level Middle, time 7 day
# [5] = 10 mg/kg, […], dose level Middle, time 14 day
# [6] = 10 mg/kg, […], dose level Middle, time 28 day
# [7] = 30 mg/kg, 72 h, dose level High, time 3 day
# [8] = 30 mg/kg, […], dose level High, time 7 day
# [9] = 30 mg/kg, […], dose level High, time 14 day
compound,measurement,setting,value
C[C@H]1C(=O)O[C@@H]2CCN3CC=C(COC(=O)[C@](C)(O)[C@]1(C)O)[C@H]23 [MONOCROTALINE],ALP,[1],1435.6 IU/L
same,ALT,[1],41.4 IU/L
same,AST,[1],76.6 IU/L
same,BUN,[1],16.4 mg/dL
same,CRE,[1],0.2 mg/dL
same,Ca,[1],11 mg/dL
same,Cl,[1],106.4 meq/L
same,DBIL,[1],0 mg/dL
same,GLC,[1],185.4 mg/dL
same,IP,[1],6.2 mg/dL
same,K,[1],4 meq/L
same,LDH,[1],269.8 IU/L
same,Na,[1],142.4 meq/L
same,PL,[1],161.6 mg/dL
same,RALB,[1],3 g/dL
same,TBIL,[1],0 mg/dL
same,TC,[1],92.2 mg/dL
same,TG,[1],97 mg/dL
same,TP,[1],5.9 g/dL
same,gamma-GTP,[1],2.2 IU/L
same,A/G,[2],1.1
same,ALP,[2],1124.2 IU/L
same,ALT,[2],41.8 IU/L
same,AST,[2],87.4 IU/L
same,BUN,[2],19 mg/dL
same,CRE,[2],0.2 mg/dL
same,Ca,[2],10.7 mg/dL
same,Cl,[2],108.4 meq/L
same,DBIL,[2],0 mg/dL
same,GLC,[2],182.2 mg/dL
same,IP,[2],6 mg/dL
same,K,[2],4.3 meq/L
same,LDH,[2],290.2 IU/L
same,Na,[2],143.2 meq/L
same,PL,[2],158.8 mg/dL
same,RALB,[2],3.2 g/dL
same,TBIL,[2],0.034 mg/dL
same,TC,[2],81.2 mg/dL
same,TG,[2],128.2 mg/dL
same,TP,[2],6.1 g/dL
same,gamma-GTP,[2],1.2 IU/L
same,TERMINAL_BW,[3],231.2 g
same,APTT,[3],19.4 s
same,Bas,[3],0%
same,Eos,[3],0.8%
same,Fbg,[3],324.6 mg/dL
same,Hb,[3],13.8 g/dL
same,Ht,[3],40.1%
same,Lym,[3],78.2%
same,MCH,[3],21.5 pg
same,MCHC,[3],34.5%
same,MCV,[3],62.2 fL
same,Mono,[3],2.8%
same,Neu,[3],17.6%
same,PT,[3],15.9 s
same,Plat,[3],126.9 x10_4/uL
same,RBC,[3],646.6 x10_4/ul
same,Ret,[3],6%
same,WBC,[3],73.2 x10_2/uL
same,KIDNEY_L,[3],1 g
same,KIDNEY_R,[3],1 g
same,KIDNEY_TOTAL,[3],2 g
same,LIVER,[3],10.7 g
same,A/G,[3],1.3
same,ALP,[3],1897.2 IU/L
same,ALT,[3],40.8 IU/L
same,AST,[3],73.6 IU/L
same,BUN,[3],16.2 mg/dL
same,CRE,[3],0.2 mg/dL
same,Ca,[3],10.9 mg/dL
same,Cl,[3],106.4 meq/L
same,DBIL,[3],0.002 mg/dL
same,GLC,[3],184.4 mg/dL
same,IP,[3],7.2 mg/dL
same,K,[3],4.6 meq/L
same,LDH,[3],283 IU/L
same,Na,[3],142 meq/L
same,PL,[3],167.2 mg/dL
same,RALB,[3],3.1 g/dL
same,TBIL,[3],0.01 mg/dL
same,TC,[3],90.4 mg/dL
same,TG,[3],113.6 mg/dL
same,TP,[3],5.5 g/dL
same,gamma-GTP,[3],1 IU/L
same,TERMINAL_BW,[4],249.4 g
same,TERMINAL_BW,[5],274.8 g
same,TERMINAL_BW,[6],321 g
same,APTT,[4],21.5 s
same,Bas,[4],0%
same,Eos,[4],1%
same,Fbg,[4],391.6 mg/dL
same,Hb,[4],13.9 g/dL
same,Ht,[4],39.4%
same,Lym,[4],78.8%
same,MCH,[4],20.7 pg
same,MCHC,[4],35.1%
same,MCV,[4],58.8 fL
same,Mono,[4],4.2%
same,Neu,[4],14.8%
same,PT,[4],16.4 s
same,Plat,[4],134.7 x10_4/uL
same,RBC,[4],670.6 x10_4/ul
same,Ret,[4],4.5%
same,WBC,[4],135.7 x10_2/uL
same,APTT,[5],21.2 s
same,Bas,[5],0%
same,Eos,[5],0.2%
same,Fbg,[5],480 mg/dL
same,Hb,[5],14.4 g/dL
same,Ht,[5],41.1%
same,Lym,[5],84.2%
same,MCH,[5],20.5 pg
same,MCHC,[5],35.2%
same,MCV,[5],58.2 fL
same,Mono,[5],4.8%
same,Neu,[5],9.6%
same,PT,[5],16.4 s
same,Plat,[5],136.8 x10_4/uL
same,RBC,[5],705.4 x10_4/ul
same,Ret,[5],2.9%
same,WBC,[5],250.8 x10_2/uL
same,APTT,[6],26.9 s
same,Bas,[6],0%
same,Eos,[6],1%
same,Fbg,[6],293.8 mg/dL
same,Hb,[6],15.3 g/dL
same,Ht,[6],43.1%
same,Lym,[6],76.4%
same,MCH,[6],18.8 pg
same,MCHC,[6],35.6%
same,MCV,[6],52.7 fL
same,Mono,[6],4.6%
same,Neu,[6],17%
same,PT,[6],16.1 s
same,Plat,[6],84.1 x10_4/uL
same,RBC,[6],818 x10_4/ul
same,Ret,[6],4.5%
same,WBC,[6],308 x10_2/uL
same,KIDNEY_L,[4],1.1 g
same,KIDNEY_R,[4],1.1 g
same,KIDNEY_TOTAL,[4],2.2 g
same,KIDNEY_L,[5],1.1 g
same,KIDNEY_R,[5],1.2 g
same,KIDNEY_TOTAL,[5],2.3 g
same,KIDNEY_L,[6],1.3 g
same,KIDNEY_R,[6],1.3 g
same,KIDNEY_TOTAL,[6],2.6 g
same,LIVER,[4],11.6 g
same,LIVER,[5],13.3 g
same,LIVER,[6],15 g
same,A/G,[4],1.1
same,ALP,[4],1684.4 IU/L
same,ALT,[4],46.6 IU/L
same,AST,[4],87.8 IU/L
same,BUN,[4],15.4 mg/dL
same,CRE,[4],0.1 mg/dL
same,Ca,[4],11 mg/dL
same,Cl,[4],107.4 meq/L
same,DBIL,[4],0.002 mg/dL
same,GLC,[4],181.2 mg/dL
same,IP,[4],6.6 mg/dL
same,K,[4],4.3 meq/L
same,LDH,[4],236 IU/L
same,Na,[4],142 meq/L
same,PL,[4],149 mg/dL
same,RALB,[4],3 g/dL
same,TBIL,[4],0.006 mg/dL
same,TC,[4],82 mg/dL
same,TG,[4],111 mg/dL
same,TP,[4],5.7 g/dL
same,gamma-GTP,[4],1.8 IU/L
same,A/G,[5],0.8
same,ALP,[5],2092 IU/L
same,ALT,[5],88.8 IU/L
same,AST,[5],174.4 IU/L
same,BUN,[5],17.2 mg/dL
same,CRE,[5],0.3 mg/dL
same,Ca,[5],11.2 mg/dL
same,Cl,[5],106.6 meq/L
same,DBIL,[5],0.006 mg/dL
same,GLC,[5],171 mg/dL
same,IP,[5],5.9 mg/dL
same,K,[5],4.8 meq/L
same,LDH,[5],454.8 IU/L
same,Na,[5],141 meq/L
same,PL,[5],139 mg/dL
same,RALB,[5],2.6 g/dL
same,TBIL,[5],0.008 mg/dL
same,TC,[5],71.6 mg/dL
same,TG,[5],103.2 mg/dL
same,TP,[5],5.8 g/dL
same,gamma-GTP,[5],2.4 IU/L
same,A/G,[6],0.9
same,ALP,[6],1353.2 IU/L
same,ALT,[6],82.8 IU/L
same,AST,[6],155 IU/L
same,BUN,[6],17.4 mg/dL
same,CRE,[6],0.2 mg/dL
same,Ca,[6],11 mg/dL
same,Cl,[6],107.8 meq/L
same,DBIL,[6],0.078 mg/dL
same,GLC,[6],167.6 mg/dL
same,IP,[6],6 mg/dL
same,K,[6],4.5 meq/L
same,LDH,[6],382.8 IU/L
same,Na,[6],141.4 meq/L
same,PL,[6],140 mg/dL
same,RALB,[6],2.9 g/dL
same,TBIL,[6],0.1 mg/dL
same,TC,[6],79.6 mg/dL
same,TG,[6],47.2 mg/dL
same,TP,[6],6 g/dL
same,gamma-GTP,[6],1.6 IU/L
same,TERMINAL_BW,[7],232.9 g
same,APTT,[7],17.3 s
same,Bas,[7],0%
same,Eos,[7],0.8%
same,Fbg,[7],350.2 mg/dL
same,Hb,[7],13.8 g/dL
same,Ht,[7],39.9%
same,Lym,[7],73.6%
same,MCH,[7],21.4 pg
same,MCHC,[7],34.5%
same,MCV,[7],62.1 fL
same,Mono,[7],4.4%
same,Neu,[7],19.8%
same,PT,[7],16.2 s
same,Plat,[7],124.3 x10_4/uL
same,RBC,[7],643.2 x10_4/ul
same,Ret,[7],4.8%
same,WBC,[7],80.8 x10_2/uL
same,KIDNEY_L,[7],1 g
same,KIDNEY_R,[7],1 g
same,KIDNEY_TOTAL,[7],2.1 g
same,LIVER,[7],12.5 g
same,A/G,[7],1.3
same,ALP,[7],1831.6 IU/L
same,ALT,[7],47.2 IU/L
same,AST,[7],112.4 IU/L
same,BUN,[7],13.6 mg/dL
same,CRE,[7],0.1 mg/dL
same,Ca,[7],11.1 mg/dL
same,Cl,[7],106.4 meq/L
same,DBIL,[7],0.01 mg/dL
same,GLC,[7],180.2 mg/dL
same,IP,[7],7 mg/dL
same,K,[7],4.5 meq/L
same,LDH,[7],398 IU/L
same,Na,[7],141.2 meq/L
same,PL,[7],161.4 mg/dL
same,RALB,[7],3.2 g/dL
same,TBIL,[7],0.028 mg/dL
same,TC,[7],88.4 mg/dL
same,TG,[7],100 mg/dL
same,TP,[7],5.7 g/dL
same,gamma-GTP,[7],1.2 IU/L
same,TERMINAL_BW,[8],230.5 g
same,APTT,[8],24.3 s
same,Bas,[8],0%
same,Eos,[8],0.4%
same,Fbg,[8],451.4 mg/dL
same,Hb,[8],14.1 g/dL
same,Ht,[8],40.7%
same,Lym,[8],71.6%
same,MCH,[8],20.2 pg
same,MCHC,[8],34.6%
same,MCV,[8],58.3 fL
same,Mono,[8],4.8%
same,Neu,[8],18.6%
same,PT,[8],17.5 s
same,Plat,[8],44 x10_4/uL
same,RBC,[8],697.8 x10_4/ul
same,Ret,[8],2.9%
same,WBC,[8],122 x10_2/uL
same,Mono,[9],7%
same,KIDNEY_L,[8],1.1 g
same,KIDNEY_R,[8],1.1 g
same,KIDNEY_TOTAL,[8],2.2 g
same,LIVER,[8],11.3 g
same,A/G,[8],1
same,ALP,[8],1889.2 IU/L
same,ALT,[8],273.2 IU/L
same,AST,[8],504.2 IU/L
same,BUN,[8],13 mg/dL
same,CRE,[8],0.2 mg/dL
same,Ca,[8],10.8 mg/dL
same,Cl,[8],106 meq/L
same,DBIL,[8],0.2 mg/dL
same,GLC,[8],156 mg/dL
same,IP,[8],6.9 mg/dL
same,K,[8],4.4 meq/L
same,LDH,[8],749.6 IU/L
same,Na,[8],141 meq/L
same,PL,[8],139.8 mg/dL
same,RALB,[8],2.6 g/dL
same,TBIL,[8],0.3 mg/dL
same,TC,[8],86.4 mg/dL
same,TG,[8],38.8 mg/dL
same,TP,[8],5.3 g/dL
same,gamma-GTP,[8],2.2 IU/L
same,BUN,[9],13.5 mg/dL
same,CRE,[9],0.2 mg/dL
same,TP,[9],4.9 g/dL
